{"source": "patent US5641787A", "about": "“Indole derivatives as dopamine D4 antagonists” (Merck, Sharp & Dohme Ltd., priority 1995, dated 1997)", "origin": "cited, not measured here", "conditions": "stated in Recl. Trav. Chim. Pays-Bas, 1954, 73, 629", "data": [{"smiles": "c1ccc2c(c1)CCN(Cc1c[nH]c3ccccc13)C2", "note": "[3-(1,2,3,4-tetrahydroisoquinolin-2-yl)methyl-1H-indole]", "values": [{"measurement": "oxytocic activity", "value": "oxytocic activity"}]}]}
